The test system of one data set is Benzodiazepine receptors. Description: 3H-flunitrazepam and 3H-RO 15-1788 binding to crude synaptosomal pellets of brains of rats treated for 21 days. It is filed as in vivo, rat. The method, then:
(§1) 20 male rats, maintained on a daily 14 hour light/10 hour darkness schedule, were divided into 4 groups, each consisting of 5 members:
(§2) Group 1 (the control group): rats were injected daily with 200 μl saline intraperitoneally for 21 days and were allowed to drink tap water.
(§3) They also were provided with regular tap water.
(§4) Group 3 (the melatonin group): rats were injected daily with 200 μl saline intraperitoneally. Their only available drinking water contained 0.4% by weight melatonin.
(§5) Each group was allowed food and water ad libitum. After 21 days the treatment was stopped. The animals were decapitated between 6:00 and 7:00 p.m. the next day, their brains were rapidly removed and crude synaptosomal pellets were prepared, and melatonin receptors were assessed using 2-^125I-melatonin, as described by Laudon, M., and N. Zisapel, FEBS Lett. 197:9 (1986). Benzodiazepine receptors were assessed by measuring the binding of radioactive benzodiazepine receptor probes ^3H-flunitrazepam (^3H-FNZ) and ^3H-RO 15-1788 as described by Amiri, Z. et al. Brain Res. 553:155 (1991). Binding parameters were calculated from the equilibrium binding data. […] Binding parameters of the various groups were compared by analysis of variance followed by Student-Newman-Keul's test for multiple comparison. Differences were considered significant if P<0.05.

Data set [1] in a line: case study: withdrawal from benzodiazepine tolerance and sleep in a patient. The class given is in vivo, human. An excerpt:
This example illustrates the action of melatonin in facilitating rapid withdrawal from benzodiazepine tolerance. A person, married with two children, had been suffering from sleep onset insomnia for 10 years, accompanied by frequent and severe migraine attacks. A thorough neurological assessment was negative. Psychiatric or other organic problems also were ruled out.
The patient had been treated with benzodiazepines, tricyclic antidepressants and neuroleptic drugs, as well as biofeedback and relaxation methods with no apparent relief throughout the 10 year period. For the last year, they had been taking 4-8 mg Lorazepam every night, taking a 0.5 mg tablet every half hour or hour throughout the night. This led to difficulties when the patient arose in the morning; they would feel heavily sedated and had problems functioning at work, especially when under pressure. They began to feel that they were losing their memory and ability to concentrate.
(§6) The quality of sleep was assessed by an actigraph tracing which automatically monitors the bedtime sleep-wake pattern through a small device attached to the hand. […] Urine was collected every three hours for 36 hours and assayed for the diurnal secretion of […] melatonin.
(§7) Oral administration of a controlled release melatonin formulation in the form of tablets containing 1 mg melatonin (Neurim Pharmaceuticals, Israel) (made in accordance with the procedures set forth in example 1 for tablet SR-A) was initiated in order to correct for the deficiency and distortion of the melatonin rhythm. One tablet was administered daily at 8:30 p.m. The patient was asked to gradually reduce the number of benzodiazepine tablets taken each night.
(§8) The treatment was stopped and 2 weeks afterwards the patient's urine was collected again every three hours over a 36 hour period and assayed for 6-sulfatoxymelatonin. […] A three month follow-up confirmed that the patient maintained their quality of sleep and hardly suffered from headaches. After 6 months without treatment the patient's sleep quality began to deteriorate and melatonin therapy was resumed. The therapy restored their sleep quality and the patient continues to take 3 mg melatonin daily.

The nature of data set [2]: urinary 6-sulfatoxymelatonin in benzodiazepine-dependent patient after melatonin therapy. To be noted: for Urinary 6-sulfatoxymelatonin after treatment: 2 weeks after stopping 1 mg controlled release melatonin daily. The class given is in vivo, human. The method, then:
as §6, §7, §8

Another data set relates to melatonin receptors. Kind of data set: 2-125I-melatonin binding to crude synaptosomal pellets of brains of rats treated for 21 days. The class given is in vivo, rat. To be noted: 21 days treatment. The method, then:
as §1, §2, §3, §4, §5

A short description of data set [3]: long term melatonin in two insomnia patients dependent upon flunitrazepam. The class given is in vivo, human. The method, then:
Two volunteers, […], a person, and […], a person, had each suffered for a number of years from insomnia and/or frequent awakenings during the night accompanied by difficulty in falling asleep again. […] Both patients had been taking 1-2 mg of flunitrazepam orally prior to retiring each evening.
Each patient was weaned off of the flunitrazepam via gradual reduction and simultaneous administration of melatonin over a two month period. During this time, each patient received 2 mg melatonin in controlled release form daily. Since the end of that two month period, each patient has been taking 2 mg oral controlled release melatonin for almost two years.
[…] Each patient also reported reduced fatigue during the daytime within several days after the beginning of the weaning period.

Setting [4] is: cerebral cortex, 21 days treatment.
[5] abbreviates: 1 mg controlled release melatonin tablet daily.
Where [6] appears, read: 2 mg controlled release melatonin daily, patients.

For `CN1C(=O)CN=C(c2ccccc2)c2cc(Cl)ccc21` [diazepam], the “effect on RO 15-1788 and flunitrazepam binding sites” value in the data set with Benzodiazepine receptors (setting [4]) is recorded as “did not significantly affect”. For the same molecule, in the data set on Benzodiazepine receptors (cerebral cortex, diazepam given together with melatonin), the “effect on the melatonin-mediated decrease in specific binding” value is “prevented”.

For the molecule `COc1ccc2[nH]cc(CCNC(C)=O)c2c1` [melatonin], in data set [1] (setting [5]), the “headaches (patient's report)” value is “subsided gradually”. Also, the “insomnia (patient's claim)” value in data set [1] (setting [5]) was “improved remarkably”. Further, the “time until the patient stopped using the benzodiazepine hypnotics altogether” value in data set [1] (1 mg controlled release melatonin tablet daily at 8:30 p.m., patient on 4-8 mg Lorazepam nightly) is given as ≤ 2 days. Further, the “sleep pattern, repeated actigraph tracing” value in data set [1] (after 3 weeks of melatonin treatment) was “marked improvement”. The “sleep quality after melatonin therapy was resumed” value in data set [1] (resumed after 6 months without treatment) is on record as “restored”. In data set [2] (2 weeks after treatment was stopped, urine every three hours over 36 hours), the “urinary 6-sulfatoxymelatonin, change after therapy” value is “increase in amount and a clear nocturnal peak”. In addition, the “Urinary 6-sulfatoxymelatonin after treatment” value came to 0.74 µg/h in data set [2] (time 3.00); 0.36 µg/h in data set [2] (time 6.00); 0.21 µg/h in data set [2] (time 9.00); 0.01 µg/h in data set [2] (time 12.00); 0.11 µg/h in data set [2] (time 15.00 (first)); 0.04 µg/h in data set [2] (time 15.00 (second)). In addition, the “Urinary 6-sulfatoxymelatonin after treatment” value in data set [2] (time 18.00) is 0.45 µg/h; in data set [2] (time 21.00) it was 0.11 µg/h; in data set [2] (time 24.00), 1.24 µg/h. Besides, in the data set on melatonin receptors, the “binding of melatonin compared with the control group” value was “no difference”. Also, the “sleep inducement (subjective report)” value in data set [3] (setting [6]) is “good”. Moreover, the “sleep quality (subjective report)” value in data set [3] (setting [6]) is “substantial improvement”. In data set [3] (2 mg oral controlled release melatonin), the “residual tiredness in the morning or hangover feeling” value is “has not caused any”. For the same molecule, the side effects reported entry in data set [3] (2 mg oral controlled release melatonin for almost two years) is on record as “No side effects”. For the same molecule, the “fatigue during the daytime” value in data set [3] (within several days after the beginning of the weaning period) is listed as “reduced”. The “reduction in specific binding of tritiated RO 15-1788 compared with the control group” value in the data set on Benzodiazepine receptors (setting [4]) came out at 20%. Besides, the “reduction in specific binding of tritiated flunitrazepam compared with the control group” value in the data set on Benzodiazepine receptors (setting [4]) was found to be 20%. In addition, the “maximal binding (Bmax) of the RO-15-1788 binding sites” value in the data set with Benzodiazepine receptors (medulla-pons, 21 days treatment) is recorded as “significantly increased”.

(Values after US6833383B2, “Methods for treating patients suffering from drug dependencies which lead to plasma melatonin deficiencies” (Neurim Pharmaceuticals (1991) Ltd., priority 1995, dated 2004).)
